In patent US8802405B2, “Ethanologenic Clostridium species, Clostridium coskatii” (Coskata, Inc., priority 2010, dated 2014):

Legend:
Experiment in all cases: Growth on various substrates (carbon substrate utilization)
C. coskatii PS02 = assay type: cell-based, Clostridium coskatii (PS02); conditions: for Growth on substrate: C. coskatii PS02, 1 g/L carbon source, N2:CO2 (80%:20%), OD600; for Chemoorganotrophic growth on substrate (in words): Clostridium coskatii (PS02)
Method: (§1) Growth was measured spectrophotometrically at 600 nm (Spectronic 20D; Milton Roy). Carbon substrate utilization was based upon growth after consecutive transfers in media containing 1 g/L of each carbon source. For carbon substrates, screening was performed under an atmosphere of N2: CO2 (80%:20%). A positive growth response was recorded for an OD600 exceeding 0.2 AU. For citrate, additional ^13C-labeled isotope experiments were conducted to determine the nature of products by analysis of final 0.2 μm-filtered product samples by carbon NMR using a Bruker UltraShield Avance 400 MHz nuclear magnetic resonance spectrometer.

C. ragsdalei = assay type: cell-based, Clostridium ragsdalei; conditions: for Growth on substrate: 1 g/L carbon source, N2:CO2 (80%:20%), OD600
Method: as §1

C. autoethangenum = assay type: cell-based, Clostridium autoethanogenum; conditions: for Growth on substrate: C. autoethangenum, 1 g/L carbon source, N2:CO2 (80%:20%), OD600
Method: as §1

C. ljungdahlii PETC = assay type: cell-based, Clostridium ljungdahlii PETC; conditions: for Growth on substrate: 1 g/L carbon source, N2:CO2 (80%:20%), OD600
Method: as §1

C[C@H](N)C(=O)O [Alanine]
Growth on substrate (C. coskatii PS02): + (A positive growth response was recorded for an OD600 exceeding 0.2 AU) | Chemoorganotrophic growth on substrate (in words) (C. coskatii PS02): growth was observed | Growth on substrate (C. ragsdalei): + (A positive growth response was recorded for an OD600 exceeding 0.2 AU) | Growth on substrate (C. autoethangenum): + (A positive growth response was recorded for an OD600 exceeding 0.2 AU) | Growth on substrate (C. ljungdahlii PETC): + (A positive growth response was recorded for an OD600 exceeding 0.2 AU)

N[C@@H](Cc1c[nH]cn1)C(=O)O [Histidine]
Growth on substrate (C. coskatii PS02): + (A positive growth response was recorded for an OD600 exceeding 0.2 AU) | Chemoorganotrophic growth on substrate (in words) (C. coskatii PS02): growth was observed | Growth on substrate (in words) (C. ragsdalei): inability | Growth on substrate (C. autoethangenum): + (A positive growth response was recorded for an OD600 exceeding 0.2 AU) | Growth on substrate (C. ljungdahlii PETC): + (A positive growth response was recorded for an OD600 exceeding 0.2 AU)

C[C@H](O)[C@H](O)[C@@H](O)[C@@H](O)C=O [Rhamnose]
Chemoorganotrophic growth on substrate (in words) (C. coskatii PS02): inability | Growth on substrate (C. autoethangenum): + (A positive growth response was recorded for an OD600 exceeding 0.2 AU) | Growth on substrate (C. ljungdahlii PETC): + (A positive growth response was recorded for an OD600 exceeding 0.2 AU)

N[C@@H](CO)C(=O)O [Serine]
Growth on substrate (C. coskatii PS02): + (A positive growth response was recorded for an OD600 exceeding 0.2 AU) | Chemoorganotrophic growth on substrate (in words) (C. coskatii PS02): growth was observed | Growth on substrate (C. ragsdalei): + (A positive growth response was recorded for an OD600 exceeding 0.2 AU) | Growth on substrate (C. autoethangenum): + (A positive growth response was recorded for an OD600 exceeding 0.2 AU) | Growth on substrate (C. ljungdahlii PETC): + (A positive growth response was recorded for an OD600 exceeding 0.2 AU)

N[C@@H](CCC(=O)O)C(=O)O [Glutamate]
Growth on substrate (C. coskatii PS02): + (A positive growth response was recorded for an OD600 exceeding 0.2 AU) | Chemoorganotrophic growth on substrate (in words) (C. coskatii PS02): growth was observed | Growth on substrate (C. ragsdalei): + (A positive growth response was recorded for an OD600 exceeding 0.2 AU) | Growth on substrate (C. autoethangenum): + (A positive growth response was recorded for an OD600 exceeding 0.2 AU) | Growth on substrate (C. ljungdahlii PETC): + (A positive growth response was recorded for an OD600 exceeding 0.2 AU)

O=C(O)[C@H](O)[C@@H](O)[C@H](O)[C@H](O)CO [D-Gluconic Acid]
Chemoorganotrophic growth on substrate (in words) (C. coskatii PS02): inability | Growth on substrate (C. autoethangenum): + (A positive growth response was recorded for an OD600 exceeding 0.2 AU) | Growth on substrate (C. ljungdahlii PETC): + (A positive growth response was recorded for an OD600 exceeding 0.2 AU)

N=C(N)NCCC[C@H](N)C(=O)O [Arginine]
Growth on substrate (C. coskatii PS02): + (A positive growth response was recorded for an OD600 exceeding 0.2 AU) | Chemoorganotrophic growth on substrate (in words) (C. coskatii PS02): growth was observed | Growth on substrate (in words) (C. ragsdalei): inability | Growth on substrate (C. autoethangenum): + (A positive growth response was recorded for an OD600 exceeding 0.2 AU) | Growth on substrate (C. ljungdahlii PETC): + (A positive growth response was recorded for an OD600 exceeding 0.2 AU)

O=C(O)CCC(=O)C(=O)O [Alpha-ketoglutarate]
Growth on substrate (C. coskatii PS02): + (A positive growth response was recorded for an OD600 exceeding 0.2 AU) | Chemoorganotrophic growth on substrate (in words) (C. coskatii PS02): growth was observed | Growth on substrate (C. ragsdalei): + (A positive growth response was recorded for an OD600 exceeding 0.2 AU) | Growth on substrate (C. autoethangenum): + (A positive growth response was recorded for an OD600 exceeding 0.2 AU) | Growth on substrate (C. ljungdahlii PETC): + (A positive growth response was recorded for an OD600 exceeding 0.2 AU)

O=C(O)/C=C\C(=O)O [Maleic acid]
Growth on substrate (C. coskatii PS02): + (A positive growth response was recorded for an OD600 exceeding 0.2 AU) | Growth on substrate (in words) (C. ragsdalei): inability | Growth on substrate (C. autoethangenum): + (A positive growth response was recorded for an OD600 exceeding 0.2 AU) | Growth on substrate (C. ljungdahlii PETC): + (A positive growth response was recorded for an OD600 exceeding 0.2 AU)

O=C(O)CC(=O)C(=O)O [Oxaloacetic acid]
Growth on substrate (C. coskatii PS02): + (A positive growth response was recorded for an OD600 exceeding 0.2 AU) | Chemoorganotrophic growth on substrate (in words) (C. coskatii PS02): growth was observed | Growth on substrate (in words) (C. ragsdalei): inability | Growth on substrate (C. autoethangenum): + (A positive growth response was recorded for an OD600 exceeding 0.2 AU)

O=C([O-])CCC(=O)[O-].[Na+].[Na+] [Na-Succinate]
Growth on substrate (C. coskatii PS02): + (A positive growth response was recorded for an OD600 exceeding 0.2 AU) | Chemoorganotrophic growth on substrate (in words) (C. coskatii PS02): growth was observed | Growth on substrate (C. ragsdalei): + (A positive growth response was recorded for an OD600 exceeding 0.2 AU) | Growth on substrate (C. autoethangenum): + (A positive growth response was recorded for an OD600 exceeding 0.2 AU) | Growth on substrate (C. ljungdahlii PETC): + (A positive growth response was recorded for an OD600 exceeding 0.2 AU)

OC[C@H]1O[C@@](CO)(O[C@H]2O[C@H](CO)[C@@H](O)[C@H](O)[C@H]2O)[C@@H](O)[C@@H]1O [Sucrose]
Growth on substrate (C. coskatii PS02): + (A positive growth response was recorded for an OD600 exceeding 0.2 AU) | Chemoorganotrophic growth on substrate (in words) (C. coskatii PS02): growth was observed | Growth on substrate (C. ragsdalei): + (A positive growth response was recorded for an OD600 exceeding 0.2 AU) | Growth on substrate (C. autoethangenum): + (A positive growth response was recorded for an OD600 exceeding 0.2 AU) | Growth on substrate (C. ljungdahlii PETC): + (A positive growth response was recorded for an OD600 exceeding 0.2 AU)

O=C(O)CC(O)(CC(=O)O)C(=O)O [Na-Citrate]
Growth on substrate (C. coskatii PS02): + (A positive growth response was recorded for an OD600 exceeding 0.2 AU) | Chemoorganotrophic growth on substrate (in words) (C. coskatii PS02): growth was observed | Growth on substrate (in words) (C. ragsdalei): inability | Growth on substrate (in words) (C. autoethangenum; C. autoethanogenum): inability | Growth on substrate (in words) (C. ljungdahlii PETC): inability

O=C(CO)[C@@H](O)[C@H](O)[C@H](O)CO [Fructose]
Growth on substrate (C. coskatii PS02): + (A positive growth response was recorded for an OD600 exceeding 0.2 AU) | Chemoorganotrophic growth on substrate (in words) (C. coskatii PS02): growth was observed | Growth on substrate (C. ragsdalei): + (A positive growth response was recorded for an OD600 exceeding 0.2 AU) | Growth on substrate (C. autoethangenum): + (A positive growth response was recorded for an OD600 exceeding 0.2 AU) | Growth on substrate (C. ljungdahlii PETC): + (A positive growth response was recorded for an OD600 exceeding 0.2 AU)

CC(=O)C(=O)O [Na-Pyruvate]
Growth on substrate (C. coskatii PS02): + (A positive growth response was recorded for an OD600 exceeding 0.2 AU) | Chemoorganotrophic growth on substrate (in words) (C. coskatii PS02): growth was observed | Growth on substrate (C. ragsdalei): + (A positive growth response was recorded for an OD600 exceeding 0.2 AU) | Growth on substrate (C. autoethangenum): + (A positive growth response was recorded for an OD600 exceeding 0.2 AU) | Growth on substrate (C. ljungdahlii PETC): + (A positive growth response was recorded for an OD600 exceeding 0.2 AU)

O=C(O)CC(=O)O [Malonic acid]
Growth on substrate (C. coskatii PS02): + (A positive growth response was recorded for an OD600 exceeding 0.2 AU) | Chemoorganotrophic growth on substrate (in words) (C. coskatii PS02): growth was observed | Growth on substrate (C. ragsdalei): + (A positive growth response was recorded for an OD600 exceeding 0.2 AU) | Growth on substrate (C. autoethangenum): + (A positive growth response was recorded for an OD600 exceeding 0.2 AU) | Growth on substrate (C. ljungdahlii PETC): + (A positive growth response was recorded for an OD600 exceeding 0.2 AU)

C=C(OP(=O)(O)O)C(=O)O [Phosphoenol-pyruvate]
Growth on substrate (C. coskatii PS02): + (A positive growth response was recorded for an OD600 exceeding 0.2 AU) | Chemoorganotrophic growth on substrate (in words) (C. coskatii PS02): growth was observed | Growth on substrate (C. ragsdalei): + (A positive growth response was recorded for an OD600 exceeding 0.2 AU) | Growth on substrate (C. autoethangenum): + (A positive growth response was recorded for an OD600 exceeding 0.2 AU) | Growth on substrate (C. ljungdahlii PETC): + (A positive growth response was recorded for an OD600 exceeding 0.2 AU)

OCc1ccccc1O[C@@H]1O[C@H](CO)[C@@H](O)[C@H](O)[C@H]1O [Salicin]
Growth on substrate (C. coskatii PS02): + (A positive growth response was recorded for an OD600 exceeding 0.2 AU) | Chemoorganotrophic growth on substrate (in words) (C. coskatii PS02): growth was observed | Growth on substrate (C. ragsdalei): + (A positive growth response was recorded for an OD600 exceeding 0.2 AU) | Growth on substrate (C. autoethangenum): + (A positive growth response was recorded for an OD600 exceeding 0.2 AU) | Growth on substrate (C. ljungdahlii PETC): + (A positive growth response was recorded for an OD600 exceeding 0.2 AU)

O=C[C@H](O)[C@@H](O)[C@H](O)CO [Xylose]
Growth on substrate (C. coskatii PS02): + (A positive growth response was recorded for an OD600 exceeding 0.2 AU) | Chemoorganotrophic growth on substrate (in words) (C. coskatii PS02): growth was observed | Growth on substrate (C. ragsdalei): + (A positive growth response was recorded for an OD600 exceeding 0.2 AU) | Growth on substrate (C. autoethangenum): + (A positive growth response was recorded for an OD600 exceeding 0.2 AU) | Growth on substrate (C. ljungdahlii PETC): + (A positive growth response was recorded for an OD600 exceeding 0.2 AU)

O=C(O)C1=C[C@@H](O)[C@@H](O)[C@H](O)C1 [Shikimic acid]
Growth on substrate (C. coskatii PS02): + (A positive growth response was recorded for an OD600 exceeding 0.2 AU) | Chemoorganotrophic growth on substrate (in words) (C. coskatii PS02): growth was observed | Growth on substrate (C. ragsdalei): + (A positive growth response was recorded for an OD600 exceeding 0.2 AU) | Growth on substrate (C. autoethangenum): + (A positive growth response was recorded for an OD600 exceeding 0.2 AU) | Growth on substrate (C. ljungdahlii PETC): + (A positive growth response was recorded for an OD600 exceeding 0.2 AU)

O=C(O)CC(O)C(=O)O (stereo not drawn) [Malic acid]
Growth on substrate (C. coskatii PS02): + (A positive growth response was recorded for an OD600 exceeding 0.2 AU) | Chemoorganotrophic growth on substrate (in words) (C. coskatii PS02): growth was observed | Growth on substrate (C. ragsdalei): + (A positive growth response was recorded for an OD600 exceeding 0.2 AU) | Growth on substrate (C. autoethangenum): + (A positive growth response was recorded for an OD600 exceeding 0.2 AU) | Growth on substrate (C. ljungdahlii PETC): + (A positive growth response was recorded for an OD600 exceeding 0.2 AU)
